# Entries after “also recorded” stand apart in the source; their conditions may differ. Where two headings read alike, the source gives them in different places.
# Legend:
# anti-OVA IgG = assay: OVA immunization of mice, anti-OVA antibody by ELISA; format: in vivo, C57BL/6 mice; conditions: PU-H71 at the time of priming
# Method: FIGS. 3A-3H. Disruption of the epichaperome using PU-H71 improves OVA-specific T cells response and anti-tumor immune response in a mouse model. (A) C57BL/6 (B6) mice were injected intraperitoneally (i.p.) with PU-H71 (75 mg/kg) n=8 or PBS n=8 on days 0, 3 and 7. On day 1, all mice were immunized subcutaneously (s.c.) with 100 μg OVA emulsified in incomplete Freund's adjuvant (IFA), experimental controls shown in schema. Peripheral blood (PB) was collected on days 0, 5 and 9, and the spleen was collected at the end of the experiment, on day 9. (B, C) T cell immunization against OVA was assessed by measuring IFN[…] release from T cells after exposure with OVA using Elispot assay. Two-tailed T test (D) Anti-OVA IgG in serum was assessed by ELISA. (E) B6 mice were immunized with OVA treated with PU-H71 (75 mg/kg) n=8 or PBS n=8 on days 11, 15 and 18. […] (F) T cell immunization against OVA was assessed by measuring IFN[…] by Elispot assay. […] On day 7 after immunization, mice challenged with OVA-expressing EG.7 tumor cells (H) tumor volume was assessed every 2-3 days using calipers. p values shown for day 13 assessment by one-way ANOVA.
# (§1) The effects of an epichaperome disrupter, PU-H71, were tested on C57BL/6 mice immune responses to ovalbumin (OVA) immunization. OVA-specific T- and B-cell responses were evaluated by ELISPOT and ELISA, respectively. […]
# [1] = test system: E.G7 (OVA+) lymphoma cells; assay: Anti-tumor response in OVA-immunized mice challenged with E.G7 lymphoma; format: in vivo, C57BL/6 mice
# Method: FIGS. 3A-3H. Disruption of the epichaperome using PU-H71 improves OVA-specific T cells response and anti-tumor immune response in a mouse model. (A) C57BL/6 (B6) mice were injected intraperitoneally (i.p.) with PU-H71 (75 mg/kg) n=8 or PBS n=8 on days 0, 3 and 7. On day 1, all mice were immunized subcutaneously (s.c.) with 100 μg OVA emulsified in incomplete Freund's adjuvant (IFA), experimental controls shown in schema. Peripheral blood (PB) was collected on days 0, 5 and 9, and the spleen was collected at the end of the experiment, on day 9. (B, C) T cell immunization against OVA was assessed by measuring IFN[…] release from T cells after exposure with OVA using Elispot assay. Two-tailed T test (D) Anti-OVA IgG in serum was assessed by ELISA. (E) B6 mice were immunized with OVA treated with PU-H71 (75 mg/kg) n=8 or PBS n=8 on days 11, 15 and 18. PB and spleen were collected at the end of the experiment, on day 20. (F) T cell immunization against OVA was assessed by measuring IFN[…] by Elispot assay. […] On day 7 after immunization, mice challenged with OVA-expressing EG.7 tumor cells (H) tumor volume was assessed every 2-3 days using calipers. p values shown for day 13 assessment by one-way ANOVA. […]
# In vivo assessment in an anti-tumor response model: E.G7 cells are OVA-expressing cells derived from the C57BL/6 (H-2b) mouse lymphoma cell line EL4, allowing for the establishment of a syngeneic lymphoma mouse model to evaluate anti-tumor protection after OVA immunization (39). […] At day 7 after immunization, lymphoma cells will be injected subcutaneously into the mice, and tumor growth will be evaluated twice a week using micro calipers. Tumor volume will be determined as mm^3=length×width^2 (41). Survival will be also determined as an endpoint (mice will be euthanized when tumor size reaches 2000 mm^3 or the animals lose more than 10% of weight). Differences in tumor growth and survival will be determined in mice immunized with OVA and PU-H71 compared to the controls OVA+IFA or no immunization. […]
# IFNγ-secreting T cells = assay: OVA immunization of mice, OVA-specific T cell response by IFNγ ELISPOT; format: in vivo, C57BL/6 mice
# Method: FIGS. 3A-3H. Disruption of the epichaperome using PU-H71 improves OVA-specific T cells response and anti-tumor immune response in a mouse model. (A) C57BL/6 (B6) mice were injected intraperitoneally (i.p.) with PU-H71 (75 mg/kg) n=8 or PBS n=8 on days 0, 3 and 7. On day 1, all mice were immunized subcutaneously (s.c.) with 100 μg OVA emulsified in incomplete Freund's adjuvant (IFA), experimental controls shown in schema. Peripheral blood (PB) was collected on days 0, 5 and 9, and the spleen was collected at the end of the experiment, on day 9. (B, C) T cell immunization against OVA was assessed by measuring IFN[…] release from T cells after exposure with OVA using Elispot assay. Two-tailed T test (D) Anti-OVA IgG in serum was assessed by ELISA. (E) B6 mice were immunized with OVA treated with PU-H71 (75 mg/kg) n=8 or PBS n=8 on days 11, 15 and 18. PB and spleen were collected at the end of the experiment, on day 20. (F) T cell immunization against OVA was assessed by measuring IFN[…] by Elispot assay. […] On day 7 after immunization, mice challenged with OVA-expressing EG.7 tumor cells (H) tumor volume was assessed every 2-3 days using calipers. p values shown for day 13 assessment by one-way ANOVA.
# as §1
# In vivo: In vivo assessment in immunization model: the well-characterized in vivo immunization model that utilizes chicken ovalbumin (OVA) will be used. […] Antibody production against OVA will be assessed in the peripheral blood (PB) at day 9 to confirm that the immunization took place (40). PU-H71 will be evaluated at different dosing schedules: before OVA administration to assess an effect on priming, shortly after OVA administration to assess an effect on T cell proliferation and polarization, and after the response has been completed (11 days) to evaluate an effect on the already ongoing response (for this cohort, mice will be sacrificed 9 days after PU-H71 treatment). […]
# [2] = test system: acute myeloid leukemia (AML); conditions: cited from earlier work; for exacerbation of GvHD in the patient: patient with donor T cell chimerism after failed allo-HSCT; for duration of complete remission: single agent, AML patient with high epichaperome abundance, post-transplant relapse
# activated T cells = assay: Activated human T cells treated with PU-H71: survival and surface phenotype by flow cytometry; format: cell-based
# Method: FIGS. 2A-2D. Epichaperomes are formed in activated T cells and their disruption impacts T cell activation phenotype but not survival. (A) Resting T cells from healthy donors were assayed for the abundance of epichaperomes by flow cytometry. (B) Purified T cells activated with anti-CD3/CD28 beads were tested for changes in epichaperome abundance 20 h after activation and compared with resting T cells and MV4-11 as a positive control. n=3, One-way ANOVA ** p<0.002, *** p<0.0002 (C, D) T cells were treated with 1 μM PU-H71 upon activation to assess the effect of epichaperome disruption on survival (C) and cell surface phenotype (CD4, CD8, CD25, CD69, HLA-DR) n=3 *p<0.03 two-tailed T-test (D).
# Thus, epichaperome formation skews the balance of T cell populations and functions towards an immunosuppressive outcome, a balance that can be restored to a cytotoxic function by epichaperome disruptors. This leads to a role of epichaperome disruptors, such as PU-H71, in CAR T cell cytotoxicity and the ability of epichaperome disruptors, such as, PU-H71, to improve the outcomes of AML patients in the post-transplant setting by improving GvL without affecting GvHD.
# [3] = test system: NALM6 (CD19+ B-ALL cell line)
# Method: FIGS. 7A-7C. […] (A) Schematic representation. CART19/4-1BB or control T cells were cultured with NALM6 (CD19^+ B-ALL cell line) for 18 h at a E:T ratio of 1:1. (B) Cytotoxicity was evaluated by flow cytometry and represented as relative to the number of dead cells in the control cells (no effector cells). Experiment performed in triplicate, Error bar represents the SEM, significance assessed using ANOVA test. (C) In vivo testing.
# To better understand its effect on human T cells and its potential adjuvant effect during cellular therapy, in vitro and in vivo chimeric antigen receptor (CAR)-T cell (CAR-T cells) phenotype and function in the presence of PU-H71 was tested. […] Finally, the therapeutic effect of the combination of PU-H71 and CART19 was evaluated in a B-ALL NSG mouse model using NALM6-BLIV cells, with bioluminescence imaging and flow cytometry (CART19 and leukemic cells) monitoring.
# To investigate the impact of epichaperome disruption on CAR T cells, CART19/4-1BB was generated and tested. […] Subsequently, the impact of epichaperome disruption on the function of CART19/4-1BB cells was assessed during co-culture with leukemia cells expressing CD19. The cytotoxic effect of CART19/4-1BB cells against Nalm-6 (CD19^+ B-ALL cell line) was measured with or without 1 μM PU-H71 (FIG. 7).
# Hsp90 = conditions: cited from earlier work
# NALM6-BLIV cells = assay: B-ALL NSG mouse model with NALM6-BLIV cells, PU-H71 combined with CART19; format: in vivo
# Method: Nalm-6 xenograft: Xenografts will be initiated using CD19^+ B-cell acute lymphoblastic leukemia (B-ALL), Nalm-6 cells expressing luciferase and GFP (BLIV/GFP) transplanted into NSG mice (59). Anti-CD19 CAR T cells (CART19/4-1BB) or non-transduced T cells (NTC) will be administered once engraftment is confirmed by bioluminescence and flow cytometry. Four treatment cohorts will be studied: (1) saline, (2) PU-H71 (75 mg/kg i.p. bi-weekly), (3) CART19/4-1BB, (4) PU-H71 (75 mg/kgi.p. bi-weekly)+CART19/4-1BB. Each cohort will consist of 8 mice, ensuring >80% power at two-sided alpha of 0.05 to detect a standardized effect size of 1.6 in tumor burden and immune cell modulation, and will include both male and female mice. The PU-H71 dose and schedule will be determined based on data (9, 17). Tumor progression will be monitored weekly using bioluminescence imaging, with CAR T cell percentage and phenotype assessed in PB from day 2 onwards and every subsequent week, as published previously (17, 59). Bone marrow (BM) aspirates on day 14 will assess tumor burden and CAR T persistence. At the endpoint, the spleen, BM, and PB will be harvested to determine leukemia burden and CAR T cell phenotype.
compound,measurement,setting,value
"CC(C)NCCCn1c(Sc2cc3c(cc2I)OCO3)nc2c(N)ncnc21 [PU-H71, 8-[(6-iodo-1,3-benzodioxol-5-yl)sulfanyl]-9-[3-(propan-2-ylamino)propyl]purin-6-amine]",impact on anti-OVA antibody levels,anti-OVA IgG,without overt impact; also recorded: without an impact
same,in vivo anti-tumor immune response / tumor progression,"[1]; OVA-primed mice plus PU-H71, E.G7 challenge",significantly decreases tumor progression; also recorded: improved in vivo anti-tumor immune responses
same,ability to control tumor progression,"[1]; PU-H71 without immunization, n=6",16 days
same,ability to control tumor progression,"[1]; mice immunized against OVA without IFA and treated with PU-H71, OVA alone 16 days, saline 14 days, n=8",18 days
same,number of IFNγ-secreting T cells (median),"IFNγ-secreting T cells; PU-H71 75 mg/kg i.p. at the time of priming, OVA immunization, ELISPOT, n=8, controls 42, p=0.0002",126 per million of cells
same,effect on OVA-specific T cell response,IFNγ-secreting T cells; PU-H71 administered once the OVA-specific T cell response was ongoing,no effect
same,impact on T cell phenotype,IFNγ-secreting T cells; PU-H71 at the time of priming,without overt impact; also recorded: without an impact
same,myelosuppression and drug-related toxicities,[2]; patient treated for >5 yrs,without significant myelosuppression or drug-related extramedullary toxicities
same,exacerbation of GvHD in the patient,[2],did not exacerbate GvHD; also recorded: did not exacerbate these symptoms
same,exacerbation of GvHD in the patient,[2]; listed as Zelavespib,without exacerbation of GvHD
same,exacerbation of GvHD in the patient,[2]; listed as zelavespib,no clinically relevant exacerbation
same,time to complete remission (CR),[2]; single AML patient,≤ 45 days
same,duration of complete remission,[2],over five years
same,duration of complete remission,[2]; listed as Zelavespib,> 5 years
same,duration of complete remission,[2]; listed as zelavespib,over 5 years
same,CD4 to CD8 ratio,activated T cells; 1 μM PU-H71 upon activation,increase of CD8^+ cells; also recorded: skewed towards more CD8^+ cells
same,expression of activation marker CD69,activated T cells; 1 μM PU-H71 upon activation,not significantly changed
same,viability of activated T cells,activated T cells; 1 μM PU-H71 upon activation with anti-CD3/CD28 beads,no detrimental effect
same,in vitro cytotoxicity of CAR-T cells toward NALM6 B-ALL cells,[3],74.66%
same,binding preference for Hsp90 form,Hsp90,preferential binding to Hsp90 when it is in the highly integrated complexed form that is the epichaperome
same,CART19 numbers in the bone marrow,NALM6-BLIV cells,increases CART19 numbers in the bone marrow
same,in vivo antitumor efficacy of CART19 against NALM6,NALM6-BLIV cells,improves their in vivo antitumor efficacy

# Reference: patent publication US20250152702A1, “EPICHAPEROME INHIBITION TO IMPROVE T CELL RESPONSES” (priority 2023, published 2025)
